According to patent US8841413B2, “Antidiabetic compounds” (Cadila Healthcare Limited, priority 2006, dated 2014):
Read-outs that look alike come from different tables or passages of the source.

Columns and labels:
[1] = Stability in simulated intestinal fluid; assay type: in vitro ADME; settings: 37° C.; for half-life at 2 μM: simulated intestinal fluid, pH 7.5, read-out: half-life (t1/2) in simulated intestinal fluid; for half-life: simulated gi fluid, read-out: half-life (t1/2) in simulated intestinal fluid
How it was run: (§1)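 First, each incubation is terminated using TFA in water (10% v/v). Next, samples run through a TFA/H2O-equilibrated column at 1 mL/min, with 206 nm monitoring. Finally, manually collected fractions go to electrospray MS.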

[2] = Stability against liver microsomes; assay type: in vitro ADME, human; settings: for half-life at 2 μM: human liver microsomes, pH 7.8, 37° C.
How it was run: as §1

[3] = Stability in human plasma; assay type: in vitro ADME; settings: for % degradation in 24 h when incubated with human plasma / half-life (t1/2) in human plasma / half-life: 2 μM, 37° C.; for half-life: plasma
How it was run: as §1

[4] = Stability in simulated gastric fluid; assay type: in vitro ADME; settings: 37° C., pH 1.5, pepsin; for half-life at 2 μM: simulated gastric fluid with pepsin; for half-life at 2 μM / half-life: read-out: half-life (t1/2) in simulated gastric fluid; for half-life: simulated gi fluid
How it was run: as §1

[5] = tested on: RIN5F (Rat Insulinoma) cells; test: In vitro glucose-dependent insulin secretion (RIN5F cell assay); assay type: cell-based; settings: 16.7 mM glucose load, mean ± S.D., n = 3
Experimental: After trypsinization, RIN5F cells were seeded at a concentration of 0.2×10^6·cells per well, in 12 well plates.
The supernatant was collected and the insulin amount was measured by ultra sensitive Rat insulin ELISA kit (Crystal Chem, Ill.). The protein was estimated in the supernatant using Bicinchoninic Acid kit, according to the manufacturer's protocol (Sigma Aldrich, Mo.). The total insulin content obtained in Pico-gram (pg) was divided with the total protein (μg) in order to normalize for differences in cell density between wells.

human glucagon receptor = molecular target: T1, human glucagon receptor (Homo sapiens, UniProt P47871); test: In vitro human glucagon antagonist activity (inhibition of cAMP production), CHO/human glucagon R cells; assay type: cell-based
T1 construct: The full-length cDNA was cloned in pcDNA3.1(Invitrogen); expressed in transfected cells
T1 sequence (P47871 26-477): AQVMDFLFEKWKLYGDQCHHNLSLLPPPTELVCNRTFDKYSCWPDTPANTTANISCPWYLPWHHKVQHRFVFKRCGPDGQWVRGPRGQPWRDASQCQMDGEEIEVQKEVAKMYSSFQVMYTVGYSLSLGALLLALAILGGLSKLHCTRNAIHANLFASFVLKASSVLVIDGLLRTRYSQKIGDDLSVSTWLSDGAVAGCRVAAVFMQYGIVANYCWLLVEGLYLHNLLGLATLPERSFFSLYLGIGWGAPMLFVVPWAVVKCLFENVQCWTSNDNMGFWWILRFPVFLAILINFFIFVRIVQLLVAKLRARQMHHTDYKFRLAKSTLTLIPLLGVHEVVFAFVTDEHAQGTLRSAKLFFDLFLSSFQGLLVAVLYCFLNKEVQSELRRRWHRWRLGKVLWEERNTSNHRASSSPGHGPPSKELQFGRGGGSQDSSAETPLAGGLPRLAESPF
Experimental: CHO cells were grown in Ham's F12 medium containing L-Glutamine (2 mM), HEPES (25 mM), NaHCO3 (1.1 g/L) and supplemented with newborn Calf Serum (NBCS; 10%), Penicillin (50 U/ml (v/v)) and Streptomycin (50 ug/ml (v/v)). Cells were split every 3 days 1:8.
The full-length cDNA was cloned in pcDNA3.1(Invitrogen). […] Clones expressing the receptor were generated by G418 (800 μg/ml active, Sigma) selection. The stable clones were thereafter maintained at 500 ug/ml (G418). The selected clone was used between passages 9-25 for cAMP assays.
The trypsin was inactivated using Ham's F12 medium containing 10% NBCS and the cells were suspended in 2 ml of complete medium. […] The medium was aspirated off from the 12 well plate and the cells were washed once using Ham's F12 (plain). […] After the incubation; the medium was removed and cells were washed once with plain Ham's F12. Subsequently, the cells were lysed by adding 500 ul of ice cold 0.1 N HCl to each well and shaking for 30 minutes at 200 rpm. The cells were then scrapped, the lysate was collected in micro centrifuge tubes and centrifuged at 12000 rpm for 10 min to remove the debris. 300 ul of supernatant from each micro-centrifuge tube was then removed into a glass tube and dried under N2 for 30 min, for cAMP estimation. The total cAMP was estimated from the sample according to the manufacturer's protocol using Cyclic AMP immunoassay kit (R&D systems, Minneapolis: MN). The remaining supernatant is used to determine the protein concentration using micro BCA (Sigma). Data is calculated as percent of control (Vehicle: water) and expressed as Mean+SD.

DPP IV = DPP IV (Homo sapiens, UniProt P27487); test: Stability against DPP IV enzyme; assay type: in vitro ADME; settings: for % degradation in 24 h when incubated with DPP-IV enzyme / half-life: 2 μM, 37° C.
DPP IV, sequence (P27487 whole entry, species assumed): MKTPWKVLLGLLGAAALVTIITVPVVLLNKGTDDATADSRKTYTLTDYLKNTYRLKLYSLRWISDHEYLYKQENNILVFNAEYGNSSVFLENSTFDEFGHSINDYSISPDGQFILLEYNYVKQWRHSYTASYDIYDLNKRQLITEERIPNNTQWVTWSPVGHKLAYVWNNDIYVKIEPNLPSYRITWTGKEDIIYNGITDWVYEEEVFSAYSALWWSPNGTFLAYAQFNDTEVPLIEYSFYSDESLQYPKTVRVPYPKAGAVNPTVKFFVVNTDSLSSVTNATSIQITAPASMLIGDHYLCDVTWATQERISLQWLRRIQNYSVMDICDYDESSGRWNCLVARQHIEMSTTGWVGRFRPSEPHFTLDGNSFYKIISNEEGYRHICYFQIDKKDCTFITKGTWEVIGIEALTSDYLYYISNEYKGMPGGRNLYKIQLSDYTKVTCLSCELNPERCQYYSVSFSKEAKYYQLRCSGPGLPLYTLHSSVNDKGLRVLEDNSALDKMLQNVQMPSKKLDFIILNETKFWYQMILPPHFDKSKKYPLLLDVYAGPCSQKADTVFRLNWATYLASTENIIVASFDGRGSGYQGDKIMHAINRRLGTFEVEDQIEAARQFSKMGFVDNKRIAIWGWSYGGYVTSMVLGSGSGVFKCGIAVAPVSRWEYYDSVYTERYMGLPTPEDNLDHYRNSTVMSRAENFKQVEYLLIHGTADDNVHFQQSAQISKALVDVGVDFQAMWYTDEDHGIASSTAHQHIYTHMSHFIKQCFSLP
How it was run: as §1

Human GLP-1 receptor = molecular target: T2, Human GLP-1 receptor (Homo sapiens, UniProt P43220); assay type: cell-based
T2 construct: The full-length cDNA was cloned in pcDNA3.1(+); expressed in transfected cells
T2 sequence (P43220 24-463): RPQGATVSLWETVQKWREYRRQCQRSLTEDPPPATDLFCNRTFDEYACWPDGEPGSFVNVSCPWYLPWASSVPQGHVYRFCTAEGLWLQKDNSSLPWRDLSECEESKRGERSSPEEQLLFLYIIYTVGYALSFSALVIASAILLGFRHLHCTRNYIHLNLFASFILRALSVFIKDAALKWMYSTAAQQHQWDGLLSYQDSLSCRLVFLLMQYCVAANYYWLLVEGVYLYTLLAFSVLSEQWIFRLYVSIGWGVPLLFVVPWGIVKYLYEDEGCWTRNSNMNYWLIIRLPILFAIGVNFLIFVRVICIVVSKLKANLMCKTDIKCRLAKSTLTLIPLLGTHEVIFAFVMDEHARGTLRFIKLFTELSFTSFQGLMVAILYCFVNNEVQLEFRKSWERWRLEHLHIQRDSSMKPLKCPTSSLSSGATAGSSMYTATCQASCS
How it was run: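 Stably transfected CHO cells expressing human GLP-1R, passages 9-25, exposed to compounds for 30 min at 37 °C. Lysed in ice-cold 0.1 N HCl; total cAMP by immunoassay, protein by micro BCA; expressed as percent of water vehicle control, mean±SD.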

[6] = human, read-out: half-life (t1/2) with liver microsomes
[7] = 1 nM test compound (fourth concentration column, between 100 nM and 10 μM) with saturated concentration of glucagon peptide
[8] = 1 nM test compound with saturated concentration of glucagon peptide
[9] = 10 nM test compound with saturated concentration of glucagon peptide
[10] = 100 nM test compound with saturated concentration of glucagon peptide
[11] = 10 μM test compound with saturated concentration of glucagon peptide
[12] = human, read-out: half-life (t1/2) in human plasma
[13] = read-out: half-life (t1/2) with DPP-IV enzyme

half-life ([1]; 2 μM, pH 7.5) | half-life [3, 12] | half-life ([4]; 2 μM) | SMILES | % degradation in 24 h when incubated with simulated intestinal fluid ([1]; 2 μM, pH 7.5) | % degradation in 24 h when incubated with liver microsomes ([2]; 2 μM, 37° C.) | half-life at 2 μM [2, 6] | % degradation in 24 h when incubated with human plasma [3] | % degradation in 24 h when incubated with simulated gastric fluid ([4]; 2 μM) | Insulin secretion ([5]; 0.1 nM test compd.) | Insulin secretion ([5]; 1 nM test compd.) | Insulin secretion ([5]; 10 nM test compd.) | Human Glucagon receptor antagonistic activity, inhibition of cAMP production of Glucagon peptide (human glucagon receptor; [7]) | Human Glucagon receptor antagonistic activity, inhibition of cAMP production of Glucagon peptide (human glucagon receptor; [8]) | Human Glucagon receptor antagonistic activity, inhibition of cAMP production of Glucagon peptide (human glucagon receptor; [9]) | Human Glucagon receptor antagonistic activity, inhibition of cAMP production of Glucagon peptide (human glucagon receptor; [10]) | Human Glucagon receptor antagonistic activity, inhibition of cAMP production of Glucagon peptide (human glucagon receptor; [11]) | % degradation in 24 h when incubated with DPP-IV enzyme (DPP IV) | half-life at 2 μM [1] | half-life (t1/2) in human plasma [3] | half-life at 2 μM [4] | other results
– | – | – | CCc1cc(OC)ccc1-c1ccc(CC(NC(=O)[C@H](CC(=O)O)NC(=O)[C@H](CO)NC(=O)[C@@H](NC(=O)C(C)(Cc2ccccc2F)NC(=O)[C@@H](NC(=O)CNC(=O)[C@H](CCC(N)=O)NC(=O)[C@H](C)NC(=O)[C@@H](N)Cc2c[nH]cn2)[C@@H](C)O)[C@@H](C)O)C(=O)NC(Cc2ccc(-c3ccccc3C)nc2)C(N)=O)cc1 (single isomer, unassigned) [compound 26] | 40% | 78% | 1 h | 71% | 14% | 12.1 ± 0.51 pg/µg/h | 14.1 ± 0.19 pg/µg/h | 28.1 ± 0.29 pg/µg/h | 4 ± 0.01 pmol/ml/μg prt | 15 ± 0.11 pmol/ml/μg prt | 12 ± 0.13 pmol/ml/μg prt | 8 ± 0.09 pmol/ml/μg prt | 2 ± 0.08 pmol/ml/μg prt | 70% | – | – | – | half-life (t1/2) in simulated intestinal fluid ([1]; 2 μM, pH 7.5): (6) h; half-life at 2 μM ([3]; human, pooled human plasma, pH 7.8, 37° C., read-out: half-life (t1/2) in human plasma): 8 h; half-life (t1/2) in simulated gastric fluid ([4]; 2 μM): (8) h; half-life at 2 μM (DPP IV; DPP IV enzyme, pH 7.8, 37° C., read-out: half-life (t1/2) with DPP-IV enzyme): 9 h
– | – | – | CCc1cc(OC)ccc1-c1ccc(CC(NC(=O)[C@H](CC(=O)O)NC(=O)[C@H](CO)NC(=O)[C@@H](NC(=O)[C@H](Cc2ccccc2)NC(=O)[C@@H](NC(=O)CNC(=O)[C@H](CCC(N)=O)NC(=O)[C@H](C)NC(=O)[C@@H](N)Cc2c[nH]cn2)[C@@H](C)O)[C@@H](C)O)C(=O)NC(Cc2ccc(-c3ccccc3F)cc2)C(N)=O)cc1 (single isomer, unassigned) [compound 11] | 100% | 100% | 0.5 h | 70% | 100% | 13.1 ± 0.11 pg/µg/h | 14.9 ± 0.17 pg/µg/h | 28.8 ± 0.44 pg/µg/h | 2 ± 0.13 pmol/ml/μg prt | 10 ± 0.03 pmol/ml/μg prt | 8 ± 0.03 pmol/ml/μg prt | 6 ± 0.22 pmol/ml/μg prt | 0 pmol/ml/μg prt | 86% | 0.5 h | (9) h | 0.5 h | –
– | – | – | CCc1cc(OC)ccc1-c1ccc(CC(NC(=O)[C@H](CC(=O)O)NC(=O)[C@H](CO)NC(=O)[C@@H](NC(=O)[C@H](Cc2ccccc2)NC(=O)[C@@H](NC(=O)CNC(=O)[C@H](CCC(N)=O)NC(=O)[C@H](CO)NC(=O)[C@@H](N)Cc2c[nH]cn2)[C@@H](C)O)[C@@H](C)O)C(=O)NC(Cc2ccc(-c3ccccc3C)nc2)C(N)=O)cc1 (single isomer, unassigned) [compound 6] | 100% | 100% | 0.5 h | 77% | 100% | 12.4 ± 0.26 pg/µg/h | 15.2 ± 0.33 pg/µg/h | 29.6 ± 0.51 pg/µg/h | – | – | – | – | – | 75% | 0.5 h | (9) h | 0.5 h | –
> 24 h | > 24 h | 4 h | CCc1cc(OC)ccc1-c1ccc(CC(NC(=O)[C@H](CC(=O)O)NC(=O)[C@H](CO)NC(=O)[C@@H](NC(=O)[C@H](Cc2ccccc2)NC(=O)[C@@H](NC(=O)CNC(=O)[C@H](CCC(N)=O)NC(=O)C2(NC(=O)[C@@H](N)Cc3c[nH]cn3)CC2)[C@@H](C)O)[C@@H](C)O)C(=O)NC(Cc2ccc(-c3ccccc3C(F)(F)F)cc2)C(N)=O)cc1 (single isomer, unassigned) [compound 20] | 00% | 80% | – | 00% | 41% | – | – | – | – | – | – | – | – | 00% | – | – | – | half-life ([2]; human, microsomes, 2 μM, 37° C., read-out: half-life (t1/2) with liver microsomes): 2 h; half-life (DPP IV; [13]): > 24 h; Human GLP-1 R activity (cAMP release), % activity with respect to control (Human GLP-1 receptor; 1 nM test compound): 96 ± 0.09%; Human GLP-1 R activity (cAMP release), % activity with respect to control (Human GLP-1 receptor; 10 nM test compound): 99 ± 0.07%; Human GLP-1 R activity (cAMP release), % activity with respect to control (Human GLP-1 receptor; 100 nM test compound): 99 ± 0.04%; Human GLP-1 R activity (cAMP release), % activity with respect to control (Human GLP-1 receptor; 1 μM test compound): 99 ± 0.01%; Human GLP-1 R activity (cAMP release), % activity with respect to control (Human GLP-1 receptor; 10 μM test compound): 99 ± 0.08%
> 24 h | > 24 h | > 24 h | CCc1cc(OC)ccc1-c1ccc(CC(NC(=O)[C@H](CC(=O)O)NC(=O)[C@H](CO)NC(=O)[C@@H](NC(=O)C(C)(Cc2ccccc2F)NC(=O)[C@@H](NC(=O)CNC(=O)[C@H](CCC(N)=O)NC(=O)C2(NC(=O)[C@@H](N)Cc3c[nH]cn3)CC2)[C@@H](C)O)[C@@H](C)O)C(=O)NC(Cc2ccc(-c3ccccc3C)cc2)C(N)=O)cc1 (single isomer, unassigned) [compound 33] | 00% | 33% | – | 00% | 00% | – | – | – | – | – | – | – | – | 00% | – | – | – | half-life (t1/2) with liver microsomes ([2]; 2 μM, 37° C.): (5) h; half-life (DPP IV; [13]): > 24 h; Human GLP-1 R activity (cAMP release), % activity with respect to control (Human GLP-1 receptor; 1 nM test compound): 99 ± 0.11%; Human GLP-1 R activity (cAMP release), % activity with respect to control (Human GLP-1 receptor; 10 nM test compound): 99 ± 0.13%; Human GLP-1 R activity (cAMP release), % activity with respect to control (Human GLP-1 receptor; 100 nM test compound): 99 ± 0.16%; Human GLP-1 R activity (cAMP release), % activity with respect to control (Human GLP-1 receptor; 1 μM test compound): 99 ± 0.06%; Human GLP-1 R activity (cAMP release), % activity with respect to control (Human GLP-1 receptor; 10 μM test compound): 99 ± 0.10%
